Legend:
Experiment in all cases: Differential Scanning Fluorimetry (DSF) Tm shift
Assay type in all cases: binding
STK3 Catalytic Domain = target: T1, STK3 Catalytic Domain (Homo sapiens, UniProt Q13188); conditions: 2 µM protein, 10 µM inhibitor, average of 3 experiments, each in duplicate
T1 construct: For all of them, we expressed and purified the catalytic domain separately; His-tag; made in house; host or cells: Escherichia coli
T1 sequence (Q13188 27-278 limits assumed): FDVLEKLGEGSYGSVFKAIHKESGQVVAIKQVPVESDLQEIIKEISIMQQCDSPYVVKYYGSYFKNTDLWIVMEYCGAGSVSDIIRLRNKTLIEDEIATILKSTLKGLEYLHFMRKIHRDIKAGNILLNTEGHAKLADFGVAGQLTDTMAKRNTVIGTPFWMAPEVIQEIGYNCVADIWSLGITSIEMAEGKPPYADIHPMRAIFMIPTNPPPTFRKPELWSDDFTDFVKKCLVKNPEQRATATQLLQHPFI

DMPK Catalytic Domain = target: T2, DMPK Catalytic Domain (Homo sapiens, UniProt Q09013); conditions: 2 µM protein, 10 µM inhibitor, average of 3 experiments, each in duplicate
T2 construct: For all of them, we expressed and purified the catalytic domain separately; His-tag; made in house; host or cells: Escherichia coli
T2 sequence (Q09013 71-339 limits assumed): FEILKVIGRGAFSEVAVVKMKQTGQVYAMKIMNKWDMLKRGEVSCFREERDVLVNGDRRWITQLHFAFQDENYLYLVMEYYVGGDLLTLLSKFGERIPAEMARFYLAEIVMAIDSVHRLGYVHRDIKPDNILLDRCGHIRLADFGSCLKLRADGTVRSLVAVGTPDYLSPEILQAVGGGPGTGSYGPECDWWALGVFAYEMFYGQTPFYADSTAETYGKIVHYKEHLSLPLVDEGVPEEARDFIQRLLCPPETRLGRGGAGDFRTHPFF

CDK2 + Cyclin E = target: T3, CDK2 + Cyclin E (Homo sapiens, UniProt P24941); conditions: CDK2 + Cyclin E; 2 µM protein, 10 µM inhibitor; average of 3 experiments, each in duplicate
T3 construct: CDK2 (P24941); 1–299; His-tag; made in house; host or cells: Escherichia coli

FES Catalytic Domain = target: T4, FES Catalytic Domain (Homo sapiens, UniProt P07332); conditions: 2 µM protein, 10 µM inhibitor, average of 3 experiments, each in duplicate
T4 construct: For all of them, we expressed and purified the catalytic domain separately; His-tag; made in house; host or cells: Escherichia coli

[1] = target: T5, PAK4 Catalytic Domain+PBD (Homo sapiens, UniProt O96013); conditions: 2 µM protein, 10 µM inhibitor, average of 3 experiments, each in duplicate
T5 construct: for 8, we also made a longer version containing one or more additional domains; His-tag; made in house; host or cells: Escherichia coli

PAK7 Catalytic Domain = target: T6, PAK7 Catalytic Domain (Homo sapiens, UniProt Q9P286); conditions: 2 µM protein, 10 µM inhibitor, average of 3 experiments, each in duplicate
T6 construct: For all of them, we expressed and purified the catalytic domain separately; His-tag; made in house; host or cells: Escherichia coli

CHK2 Catalytic Domain = target: T7, CHK2 Catalytic Domain (Homo sapiens, UniProt O96017); conditions: 2 µM protein, 10 µM inhibitor, average of 3 experiments, each in duplicate
T7 construct: For all of them, we expressed and purified the catalytic domain separately; His-tag; made in house; host or cells: Escherichia coli

PAK4 Catalytic Domain = target: T8, PAK4 Catalytic Domain (Homo sapiens, UniProt O96013); conditions: 2 µM protein, 10 µM inhibitor, average of 3 experiments, each in duplicate
T8 construct: For all of them, we expressed and purified the catalytic domain separately; His-tag; made in house; host or cells: Escherichia coli

FES Catalytic Domain+SH2 = target: T9, FES Catalytic Domain+SH2 (Homo sapiens, UniProt P07332); conditions: 2 µM protein, 10 µM inhibitor, average of 3 experiments, each in duplicate
T9 construct: for 8, we also made a longer version containing one or more additional domains; His-tag; made in house; host or cells: Escherichia coli

[2] = target: T10, STK3 Catalytic domain+SARAH (Homo sapiens, UniProt Q13188); conditions: 2 µM protein, 10 µM inhibitor, average of 3 experiments, each in duplicate
T10 construct: for 8, we also made a longer version containing one or more additional domains; His-tag; made in house; host or cells: Escherichia coli
T10 sequence (Q13188 1-491): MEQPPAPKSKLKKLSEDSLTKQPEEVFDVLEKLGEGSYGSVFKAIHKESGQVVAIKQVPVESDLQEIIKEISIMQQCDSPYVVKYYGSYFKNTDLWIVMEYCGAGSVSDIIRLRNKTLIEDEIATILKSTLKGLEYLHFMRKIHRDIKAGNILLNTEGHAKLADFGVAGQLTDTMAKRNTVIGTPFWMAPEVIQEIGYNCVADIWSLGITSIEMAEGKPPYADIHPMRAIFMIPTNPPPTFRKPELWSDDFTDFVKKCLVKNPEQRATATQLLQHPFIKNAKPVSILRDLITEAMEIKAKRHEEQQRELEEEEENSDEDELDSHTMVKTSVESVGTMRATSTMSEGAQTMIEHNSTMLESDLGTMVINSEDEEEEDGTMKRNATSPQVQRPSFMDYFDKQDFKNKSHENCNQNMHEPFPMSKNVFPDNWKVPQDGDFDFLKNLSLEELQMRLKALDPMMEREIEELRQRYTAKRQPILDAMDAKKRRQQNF

CDK2 + Cyclin A = target: T11, CDK2 + Cyclin A (Homo sapiens, UniProt P24941); conditions: CDK2 + Cyclin A; 2 µM protein, 10 µM inhibitor; average of 3 experiments, each in duplicate
T11 construct: CDK2 (P24941); 1–299; His-tag; made in house; host or cells: Escherichia coli

FAK2 Catalytic Domain = target: T12, FAK2 Catalytic Domain (Homo sapiens, UniProt Q14289); conditions: 2 µM protein, 10 µM inhibitor, average of 3 experiments, each in duplicate
T12 construct: For all of them, we expressed and purified the catalytic domain separately; His-tag; made in house; host or cells: Escherichia coli

[3] = target: SRC Catalytic Domain+SH2+SH3 (Homo sapiens, UniProt P12931); conditions: 2 µM protein, 10 µM inhibitor, average of 3 experiments, each in duplicate
AKT3 Catalytic Domain = target: T13, AKT3 Catalytic Domain (Homo sapiens, UniProt Q9Y243); conditions: 2 µM protein, 10 µM inhibitor, average of 3 experiments, each in duplicate
T13 construct: AKT3 (Q9Y243); CD; His-tag; made in house; host or cells: Escherichia coli
T13 sequence (Q9Y243 122-479): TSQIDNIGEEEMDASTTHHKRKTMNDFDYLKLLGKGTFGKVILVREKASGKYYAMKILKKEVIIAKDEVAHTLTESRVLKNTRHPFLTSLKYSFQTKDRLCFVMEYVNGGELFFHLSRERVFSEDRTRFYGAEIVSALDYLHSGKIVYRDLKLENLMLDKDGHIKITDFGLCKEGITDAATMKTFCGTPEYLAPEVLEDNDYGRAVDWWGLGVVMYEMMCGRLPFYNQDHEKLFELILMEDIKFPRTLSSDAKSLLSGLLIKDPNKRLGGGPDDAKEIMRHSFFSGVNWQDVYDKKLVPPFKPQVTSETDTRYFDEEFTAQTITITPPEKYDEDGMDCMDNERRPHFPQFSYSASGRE

T4 sequence (P07332 561-822 limits assumed): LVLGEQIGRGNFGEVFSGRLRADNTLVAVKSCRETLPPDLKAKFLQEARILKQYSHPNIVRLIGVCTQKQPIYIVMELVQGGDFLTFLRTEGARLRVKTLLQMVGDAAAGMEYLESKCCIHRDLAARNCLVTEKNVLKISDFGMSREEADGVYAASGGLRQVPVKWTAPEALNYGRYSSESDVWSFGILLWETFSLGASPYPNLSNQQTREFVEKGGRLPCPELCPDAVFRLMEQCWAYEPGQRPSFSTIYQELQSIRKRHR
T9 sequence (P07332 448-822 limits assumed): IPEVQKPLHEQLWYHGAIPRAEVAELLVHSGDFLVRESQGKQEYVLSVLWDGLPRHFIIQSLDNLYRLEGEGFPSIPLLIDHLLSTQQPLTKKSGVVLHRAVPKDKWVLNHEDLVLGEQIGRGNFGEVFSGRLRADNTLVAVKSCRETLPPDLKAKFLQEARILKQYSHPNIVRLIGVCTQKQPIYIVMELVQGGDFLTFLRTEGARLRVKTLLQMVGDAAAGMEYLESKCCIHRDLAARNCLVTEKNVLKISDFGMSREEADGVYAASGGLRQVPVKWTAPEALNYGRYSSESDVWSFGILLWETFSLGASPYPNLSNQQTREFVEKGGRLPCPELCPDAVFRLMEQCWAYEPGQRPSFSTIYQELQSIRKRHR
T7 sequence (O96017 220-486 limits assumed): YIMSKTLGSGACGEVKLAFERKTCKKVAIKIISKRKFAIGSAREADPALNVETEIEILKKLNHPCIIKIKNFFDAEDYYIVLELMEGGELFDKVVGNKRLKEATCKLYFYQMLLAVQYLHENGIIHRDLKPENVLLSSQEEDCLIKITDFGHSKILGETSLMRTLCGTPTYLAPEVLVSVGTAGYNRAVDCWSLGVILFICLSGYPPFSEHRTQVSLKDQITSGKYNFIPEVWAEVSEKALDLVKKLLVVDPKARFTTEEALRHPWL
T6 sequence (Q9P286 449-700 limits assumed): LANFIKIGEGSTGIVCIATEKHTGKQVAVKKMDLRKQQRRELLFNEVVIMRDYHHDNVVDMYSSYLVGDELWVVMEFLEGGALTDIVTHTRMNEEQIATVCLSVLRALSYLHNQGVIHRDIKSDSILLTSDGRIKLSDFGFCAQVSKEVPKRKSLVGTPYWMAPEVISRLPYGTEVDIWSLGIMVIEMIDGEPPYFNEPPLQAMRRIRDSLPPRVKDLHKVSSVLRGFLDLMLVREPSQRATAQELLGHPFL
T8 sequence (O96013 321-572 limits assumed): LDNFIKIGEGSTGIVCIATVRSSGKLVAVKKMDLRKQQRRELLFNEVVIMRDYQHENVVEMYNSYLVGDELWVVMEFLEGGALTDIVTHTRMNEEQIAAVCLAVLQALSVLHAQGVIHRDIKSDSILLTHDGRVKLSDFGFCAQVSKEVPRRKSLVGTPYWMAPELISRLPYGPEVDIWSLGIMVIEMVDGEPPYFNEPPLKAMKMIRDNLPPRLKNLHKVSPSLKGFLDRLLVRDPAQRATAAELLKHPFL
T12 sequence (Q14289 425-683 limits assumed): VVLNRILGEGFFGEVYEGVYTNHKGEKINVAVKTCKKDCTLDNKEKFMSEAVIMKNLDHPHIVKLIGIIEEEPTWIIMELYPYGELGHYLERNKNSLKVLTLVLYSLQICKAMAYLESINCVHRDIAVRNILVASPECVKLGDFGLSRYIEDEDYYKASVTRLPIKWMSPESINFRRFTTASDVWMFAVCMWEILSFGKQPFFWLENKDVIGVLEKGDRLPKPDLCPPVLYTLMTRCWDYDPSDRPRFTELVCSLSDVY
T5 sequence (O96013 whole entry, the tested form may be a part): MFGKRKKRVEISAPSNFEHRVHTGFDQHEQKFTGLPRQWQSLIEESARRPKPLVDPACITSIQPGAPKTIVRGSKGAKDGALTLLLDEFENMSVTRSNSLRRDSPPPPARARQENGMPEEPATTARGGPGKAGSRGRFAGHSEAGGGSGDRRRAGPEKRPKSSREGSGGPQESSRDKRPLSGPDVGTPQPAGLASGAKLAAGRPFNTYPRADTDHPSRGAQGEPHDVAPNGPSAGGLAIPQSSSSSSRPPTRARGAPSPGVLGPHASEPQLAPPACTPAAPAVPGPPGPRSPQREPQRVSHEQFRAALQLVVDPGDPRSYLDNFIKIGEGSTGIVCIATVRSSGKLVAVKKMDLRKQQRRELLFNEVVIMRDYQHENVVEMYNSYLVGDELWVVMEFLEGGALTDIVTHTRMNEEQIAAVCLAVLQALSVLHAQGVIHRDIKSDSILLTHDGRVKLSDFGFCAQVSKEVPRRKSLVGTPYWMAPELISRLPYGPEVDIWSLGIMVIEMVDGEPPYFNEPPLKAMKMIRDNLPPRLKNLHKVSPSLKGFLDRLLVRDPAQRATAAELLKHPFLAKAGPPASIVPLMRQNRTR
Sequence of SRC Catalytic Domain+SH2+SH3 (P12931 84-523 limits assumed): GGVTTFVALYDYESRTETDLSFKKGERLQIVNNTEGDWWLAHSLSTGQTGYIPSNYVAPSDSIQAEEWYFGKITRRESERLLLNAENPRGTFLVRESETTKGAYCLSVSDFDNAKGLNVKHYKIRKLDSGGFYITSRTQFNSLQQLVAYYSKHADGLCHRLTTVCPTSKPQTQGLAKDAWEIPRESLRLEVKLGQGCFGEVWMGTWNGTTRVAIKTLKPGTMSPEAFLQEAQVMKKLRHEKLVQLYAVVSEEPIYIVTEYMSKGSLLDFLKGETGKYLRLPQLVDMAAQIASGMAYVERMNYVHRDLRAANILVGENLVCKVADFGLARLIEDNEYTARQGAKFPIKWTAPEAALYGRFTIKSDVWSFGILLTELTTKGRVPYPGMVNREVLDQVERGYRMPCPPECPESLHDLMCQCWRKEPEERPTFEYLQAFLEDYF

Row | Structure (SMILES) | Melting temperature (Tm) shift (STK3 Catalytic Domain) [degrees Celcius] | Melting temperature (Tm) shift (DMPK Catalytic Domain) [degrees Celcius] | Melting temperature (Tm) shift (CDK2 + Cyclin E) [degrees Celcius] | Melting temperature (Tm) shift (FES Catalytic Domain) [degrees Celcius] | Melting temperature (Tm) shift [1] [degrees Celcius] | Melting temperature (Tm) shift (PAK7 Catalytic Domain) [degrees Celcius] | Melting temperature (Tm) shift (CHK2 Catalytic Domain) [degrees Celcius] | Melting temperature (Tm) shift (PAK4 Catalytic Domain) [degrees Celcius] | Melting temperature (Tm) shift (FES Catalytic Domain+SH2) [degrees Celcius] | Melting temperature (Tm) shift [2] [degrees Celcius] | Melting temperature (Tm) shift (CDK2 + Cyclin A) [degrees Celcius] | Melting temperature (Tm) shift (FAK2 Catalytic Domain) [degrees Celcius] | Melting temperature (Tm) shift [3] [degrees Celcius] | Melting temperature (Tm) shift (AKT3 Catalytic Domain) [degrees Celcius]
1 | O=C1Nc2ccc(Cl)cc2C1=Cc1cc(Cl)c(O)c(Cl)c1 [PKR Inhibitor, Negative Control] | 1.2 | 3.2 | 0.6 | 0.4 | 1.5 | 0.3 | 3.9 | 0.9 | 0.5 | 2.1 | – | – | – | –
2 | CC(C)(C)c1nc2c3cc[nH]c(=O)c3c3cc(F)ccc3c2[nH]1 [JAK Inhibitor I] | 2.1 | – | 0.0 | 0.1 | 0.2 | 0.2 | 8.8 | 0.2 | 0.1 | 3.2 | 0.0 | 3.0 | – | –
3 | O=C1NC(=O)/C(=C/c2ccc3nccnc3c2)S1 [PI 3-Kg Inhibitor] | 0.1 | 0.8 | – | 0.1 | – | 0.0 | 0.4 | 0.1 | 0.1 | 0.1 | 0.2 | – | 0.0 | 0.0
4 | O=C1NC(=O)C(=Cc2ccc3c(c2)OCO3)S1 [PI 3-Kγ Inhibitor VII] | 0.2 | 0.3 | 0.1 | 0.0 | – | – | 0.1 | – | – | – | – | 0.0 | – | 0.0
5 | O=C1c2ccccc2-c2nc3nnnn3nc21 [PDK1/Akt/Flt Dual Pathway Inhibitor] | – | – | 0.4 | 0.0 | – | – | 0.6 | – | – | 0.0 | 0.1 | – | – | 3.1

From paper PMC4051630, “A Comparison of Protein Kinases Inhibitor Screening Methods Using Both Enzymatic Activity and Binding Affinity Determination” (PLoS ONE, 2014)
